Columns and labels:
[1] = system: HCC1954 cells; assay: Inhibition of HCC1954 cell growth (method analogous to BT-474); assay type: cell-based; settings: Homo sapiens
Method: (§1) BT-474 human mammary gland ductal carcinoma cells were seeded in a clear polystyrene 96-well microculture plate (Corning® Costar® 96-well flat bottom plate, Cat. #3997) in a total volume of 90 μL/well. After 24 hours of incubation in a humidified incubator at 37° C. with 5% CO2 and 95% air, 10 μL of 10×, serially diluted test agents in growth medium were added to each well (10 pt dose response curve, highest concentration 10 μM of test agent). After 72 hours of culture in a humidified incubator at 37° C., in an atmosphere of 5% CO2 and 95% air, the plated cells and Cell Titer-Glo® (Protnega G7571) reagents were brought to room temperature to equilibrate for 30 minutes. 100 μL of Cell Titer-Glo® reagent was added to each well. The plate was shaken for two minutes and then left to equilibrate for ten minutes. The media/Cell Titer-Glo® reagent was transferred to a white polystyrene 96-well microculture plate (Corning® Costar® 96-well flat bottom plate, Cat. #3917) before reading luminescence on a Tecan GENios microplate reader.
(§2) Percent inhibition of cell growth was calculated relative to untreated control wells. The IC50 value for the test agents was determined using Prism 6.05 by curve-fitting of the data using the following four parameter-logistic equation:
(§3) [formula] where Top is the maximal % of control absorbance, Bottom is the minimal % of control absorbance at the highest agent concentration, Y is the % of control absorbance, X is the agent concentration, IC50 is the concentration of agent that inhibits cell growth by 50% compared to the control cells, and n is the slope of the curve.
Inhibitory response of test compounds against HCC1954 cells was determined using a method analogous to that used for BT-474 cells.

[2] = system: BT-474 human mammary gland ductal carcinoma cells; assay: Inhibition of BT-474 cell growth (Cell Titer-Glo, 72 h); assay type: cell-based; settings: BT-474 cells, 72 hours of culture, Cell Titer-Glo luminescence
Method: as §1, §2
as §3, with “curve. […]” for “curve.”

Structure (SMILES) | IC50 [1] [nM] | IC50 [2] [nM]
C/C=C(\C)[C@H]1OC(=O)[C@@H](C)NC(=O)[C@H](C(C)CC)NC(=O)CN(C)C(=O)[C@@H](Cc2ccccc2)N(C)C(=O)[C@H](C)NC(=O)[C@@H](CC(C)C)OC(=O)/C(C)=C/C[C@H](OC(=O)NCCOCCO)[C@@H]1C (stereo partly drawn) [Compound 11, (2R,5S,8R,14S,17R,20S,21S,22S,E)-8-benzyl-20-((E)-but-2-en-2-yl)-14-((R)-see-butyl)-2-isobutyl-5,7,10,17,21,25-hexamethyl-3,6,9,12,15,18,26-heptaoxo-1,19-dioxa-4,7,10,13,16-pentaazacyclohexacos-24-en-22-yl (2-(2-hydroxyethoxy)ethyl)carbamate] | 1.64 | 1
C/C=C(\C)[C@H]1OC(=O)[C@@H](C)NC(=O)[C@H]([C@H](C)CC)NC(=O)CN(C)C(=O)[C@@H](Cc2ccccc2)N(C)C(=O)[C@H](C)NC(=O)[C@@H](CC(C)C)OC(=O)/C(C)=C/C[C@H](OC(=O)N(C)CCCCCCNC)[C@@H]1C [Compound 8, (2R,5S,8R,14S,17R,20S,21S,22S,E)-8-benzyl-20-((E)-but-2-en-2-yl)-14-((R)-sec-butyl)-2-isobutyl-5,7,10,17,21,25-hexamethyl-3,6,9,12,15,18,26-heptaoxo-1,19-dioxa-4,7,10,13,16-pentaazacyclohexacos-24-en-22-yl methyl(6-(methylamino)hexyl)carbamate] | 31.9 | 8.66
C/C=C(\C)[C@H]1OC(=O)[C@@H](C)NC(=O)[C@H]([C@H](C)CC)NC(=O)CN(C)C(=O)[C@@H](Cc2ccccc2)N(C)C(=O)[C@H](C)NC(=O)[C@@H](CC(C)C)OC(=O)/C(C)=C/C[C@H](OC(=O)NCCCCO)[C@@H]1C [Compound 2, (2R,5S,8R,14S,17R,20S,21S,22S,E)-8-benzyl-20-((E)-but-2-en-2-yl)-14-((R)-sec-butyl)-2-isobutyl-5,7,10,17,21,25-hexamethyl-3,6,9,12,15,18,26-heptaoxo-1,19-dioxa-4,7,10,13,16-pentaazacyclohexacos-24-en-22-yl (4-hydroxybutyl)carbamate] | 4.95 | 3.75
C/C=C(\C)[C@H]1OC(=O)[C@@H](C)NC(=O)[C@H]([C@H](C)CC)NC(=O)CN(C)C(=O)[C@@H](Cc2ccc(Cl)cc2)N(C)C(=O)[C@H](C)NC(=O)[C@@H](CC(C)C)OC(=O)/C(C)=C/C[C@H](O)[C@@H]1C [Compound 15, (3R,6S,12R,15S,18R,24S,25S,26S,E)-26-((E)-but-2-en-2-yl)-6-((R)-sec-butyl)-12-(4-chlorobenzyl)-24-hydroxy-18-isobutyl-3,10,13,15,21,25-hexamethyl-1,19-dioxa-4,7,10,13,16-pentaazacyclohexacos-21-ene-2,5,8,11,14,17,20-heptaone] | 4.37 | 2.62
C/C=C(\C)[C@H]1OC(=O)C(C)(C)NC(=O)[C@H]([C@H](C)CC)NC(=O)CN(C)C(=O)[C@@H](Cc2ccc(Cl)cc2)N(C)C(=O)[C@H](C)NC(=O)[C@@H](CC(C)C)OC(=O)/C(C)=C/C[C@H](OC(=O)N(C)CCCCCCN(C)C(C)=O)[C@@H]1C [Compound 24, (2R,5S,8R,14S,20S,21S,22S,E)-20-((E)-but-2-en-2-yl)-14-((R)-sec-butyl)-8-(4-chlorobenzyl)-2-isobutyl-5,7,10,17,17,21,25-heptamethyl-3,6,9,12,15,18,26-heptaoxo-1,19-dioxa-4,7,10,13,16-pentaazacyclohexacos-24-en-22-yl methyl(6-(N-methylacetamido)hexyl)carbamate] | 2.07 | –
C/C=C(\C)[C@H]1OC(=O)[C@@H](C)NC(=O)[C@H]([C@H](C)CC)NC(=O)CN(C)C(=O)[C@@H](Cc2ccccc2)N(C)C(=O)[C@H](C)NC(=O)[C@@H](CC(C)C)OC(=O)/C(C)=C/C[C@H](OC(=O)N2CCN(CCO)CC2)[C@@H]1C [Compound 9, (2R,5S,8R,14S,17R,20S,21S,22S,E)-8-benzyl-20-((E)-but-2-en-2-yl)-14-((R)-sec-butyl)-2-isobutyl-5,7,10,17,21,25-hexamethyl-3,6,9,12,15,18,26-heptaoxo-1,19-dioxa-4,7,10,13,16-pentaazacyclohexacos-24-en-22-yl-4-(2-hydroxyethyl)piperazine-1-carboxylate] | 0.25 | 0.15
C/C=C(\C)[C@H]1OC(=O)[C@@H](C)NC(=O)[C@H]([C@H](C)CC)NC(=O)CN(C)C(=O)[C@@H](Cc2ccccc2)N(C)C(=O)[C@H](C)NC(=O)[C@@H](CC(C)C)OC(=O)/C(C)=C/C[C@H](OC(=O)NCCCCCCCCO)[C@@H]1C [Compound 6, (2R,5S,8R,14S,17R,20S,21S,22S,E)-8-benzyl-20-((E)-but-2-en-2-yl)-14-((R)-sec-butyl)-2-isobutyl-5,7,10,17,21,25-hexamethyl-3,6,9,12,15,18,26-heptaoxo-1,19-dioxa-4,7,10,13,16-pentaazacyclohexacos-24-en-22-yl (8-hydroxyoctyl)carbamate] | 1.66 | 0.93
C/C=C(\C)[C@H]1OC(=O)[C@@H](C)NC(=O)[C@H]([C@H](C)CC)NC(=O)CN(C)C(=O)[C@@H](Cc2ccccc2)N(C)C(=O)[C@H](C)NC(=O)[C@@H](CC(C)C)OC(=O)/C(C)=C/C[C@H](OC(=O)NCc2ccc(CO)cc2)[C@@H]1C [Compound 12, (2R,5S,8R,14S,17R,20S,21S,22S,E)-8-benzyl-20-((E)-but-2-en-2-yl)-14-((R)-sec-butyl)-2-isobutyl-5,7,10,17,21,25-hexamethyl-3,6,9,12,15,18,26-heptaoxo-1,19-dioxa-4,7,10,13,16-pentaazacyclohexacos-24-en-22-yl (4-(hydroxymethyl)benzyl)carbamate] | 3.29 | –
C/C=C(\C)[C@H]1OC(=O)[C@@H](C)NC(=O)[C@H]([C@H](C)CC)NC(=O)CN(C)C(=O)[C@@H](Cc2ccc(Cl)cc2)N(C)C(=O)[C@H](C)NC(=O)[C@@H](CC(C)C)OC(=O)/C(C)=C/C[C@H](OC(=O)NCCCCCO)[C@@H]1C [Compound 16, (2R,5S,8R,14S,17R,20S,21S,22S,E)-20-((E)-but-2-en-2-yl)-14-((R)-sec-butyl)-8-(4-chlorobenzyl)-2-isobutyl-5,7,10,17,21,25-hexamethyl-3,6,9,12,15,18,26-heptaoxo-1,19-dioxa-4,7,10,13,16-pentaazacyclohexacos-24-en-22-yl (5-hydroxypentyl)carbamate] | 0.1 | –
C/C=C(\C)[C@H]1OC(=O)C(C)(C)NC(=O)[C@H]([C@H](C)CC)NC(=O)CN(C)C(=O)[C@@H](Cc2ccc(C#N)cc2)N(C)C(=O)[C@H](C)NC(=O)[C@@H](CC(C)C)OC(=O)/C(C)=C/C[C@H](OC(=O)NCCCCCO)[C@@H]1C [Compound 29, (2R,5S,8R,14S,20S,21S,22S,E)-20-((E)-but-2-en-2-yl)-14-((R)-sec-butyl)-8-(4-cyanobenzyl)-2-isobutyl-5,7,10,17,17,21,25-heptamethyl-3,6,9,12,15,18,26-heptaoxo-1,19-dioxa-4,7,10,13,16-pentaazacyclohexacos-24-en-22-yl (5-hydroxypentyl)carbamate] | 27.3 | –

Reference: patent publication US11254705B2, “Cyclic peptide analogs and conjugates thereof” (Sirenas LLC, priority 2016, dated 2022)
